Measurements published in article PMC7188779, “Hydroxypropyl-β-Cyclodextrin Complexes of Styryllactones Enhance the Anti-Tumor Effect in SW1116 Cell Line” (Frontiers in Pharmacology, 2020).
Entries after “also recorded” stand apart in the source; their conditions may differ. Read-outs that look alike come from different tables or passages of the source.

Legend:
[1] = test system: human hepatocellular carcinoma SMMC-7721 cell line; assay: MTT antiproliferative assay, SMMC-7721; type: cell-based; conditions: for IC50: Homo sapiens, SMMC-7721, means ± SEM (n=3)
Protocol: (§1) The human colon cancer SW1116 cell line, the human hepatocellular carcinoma SMMC-7721 cell line, the human gastric cancer SGC-7901 cell line, and the human hepatocellular carcinoma HepG2 cell line were kindly provided by Xiao-li Xu from the Cancer Center, Fudan University. The human embryonic kidney 293T (HEK293T) cell line was kindly donated by Professor You-hua Xie from Fudan University. These human cancer cell lines were cultured in DMEM medium or RPMI-1640 medium, whereas the HEK293T cell line was cultured in MEM medium. All of the cell lines were supplemented with 10% FBS, penicillin (100 U/ml), and streptomycin ([…]) under a humidified atmosphere of 5% CO2 at 37°C using a CO2 incubator (SANYO, Osaka, Japan). Cell count was assessed using the trypan blue dye exclusion method.
(§2) The antiproliferative effects of the treatments were evaluated using the MTT assay. Cells were seeded at a density of 5×10^3 cells/well in 96-well plates (Corning, NY, USA). After attachment, the culture media were replaced with various concentrations of chemicals for 24 h. Then, the media in 96-well plates were incubated with MTT reagent (5 mg/ml) for 4 h at 37°C. Subsequently, the culture medium was discarded and 100 μl of DMSO was added to each well, to solubilize the formazan crystal formed. The absorbance of formazan crystal solution was determined at 570 nm on a Multiskan FC from Thermo Fisher Scientific Inc. (Waltham, MA, USA).

[2] = test system: human embryonic kidney 293T (HEK293T) cell line; assay: MTT cytotoxicity against normal cell line HEK293T; type: cell-based; conditions: 24 h; for IC50: Homo sapiens, HEK-293T, means ± SEM (n=3)
Protocol: as §1, §2

[3] = test system: human gastric cancer SGC-7901 cell line; assay: MTT antiproliferative assay, SGC-7901; type: cell-based; conditions: 24 h, 1.0-100.0 μM, means ± SEM (n=3)
Protocol: as §1, §2

SW1116 cells = assay: Annexin V-FITC/PI double staining by flow cytometry; type: cell-based, human; conditions: 36 h
Protocol: The growing cells were incubated in 24-well microplates (Corning, NY, USA) for 24 h. The cells were then treated with various concentrations of leiocarpin E-7′-monoacetate or taxol in humidified air with 5% CO2 at 37°C. After 36 h of incubation, the culture medium was discarded, and the cells were collected. For the apoptosis analysis, cells were suspended with 1×binding buffer (1×10^6 cells/ml) and then labeled with annexin V-FITC/PI, as per the manufacturer's instructions (Keygentec, Nanjing, Jiangsu, China). The analysis of the samples was performed by flow cytometry (Becton-Dickinson Bioscience, San Jose, CA, USA), and the acquired data was analyzed by the CellQuest software (Becton-Dickinson Bioscience, San Jose, CA, USA).

[4] = test system: caspase-3, -8 and -9 in SW1116 cells; assay: Caspase activity assay in cell lysates; type: cell-based, human; conditions: 8 h
Protocol: To evaluate the activity of caspases, cell lysates were prepared after their respective designated treatments. The incubation of the growing cells was carried out in 24-well microplates (Corning, NY, USA) for 24 h. The cells were then treated with different concentrations of leiocarpin E-7′-monoacetate under humidified air with 5% CO2 at 37°C. After 8 h of incubation, the culture medium was discarded, the cells collected and washed twice with PBS. The mixture was then centrifuged at 2,000 rpm for 5 min. The PBS supernatant was discarded and the cells (concentration, 5×10^6 cells) were collected. To these cells, ice-cold lysis buffer (150~200 μl) was added. The mixture was placed on ice for 30 min, and then centrifuged (10,000 rpm, 1 min) at 4°C. The supernatant, containing lysed protein, was carefully aspirated and transferred to a new tube. The protein concentration was then measured in 2 μl of the supernatant using the Bradford method. The caspase assays were then performed in 96-well microtiter plates (Keygentec, Nanjing, Jiangsu, China) by incubating 10 μl of protein cell lysate per sample in 80 μl of reaction buffer (1% NP-40, 20 mM Tris-HCl (pH 7.5), 137 mM NaCl, and 10% glycerol) containing 10 μl of caspase substrate (2 mM). Lysates were incubated at 37°C for 4 h. Measuremet was done at 405 nm on a Multiskan FC from Thermo Fisher Scientific Inc. (Waltham, MA, USA). The detailed analysis procedure is described in the manufacturer's protocol (Keygentec, Nanjing, Jiangsu, China).

[5] = test system: human colon cancer SW1116 cell line; assay: MTT antiproliferative assay, SW1116; type: cell-based; conditions: for cell viability of SW1116 cells compared with normal group (0 μM): 30 μM, p < 0.01; for IC50: Homo sapiens, SW 1116, means ± SEM (n=3)
Protocol: as §1, §2

[6] = test system: human hepatocellular carcinoma HepG2 cell line; assay: MTT antiproliferative assay, HepG2; type: cell-based; conditions: 24 h, 1.0-100.0 μM, means ± SEM (n=3)
Protocol: as §1, §2

[7] = test system: KB (oral epidermoid carcinoma cell line); set-up: method as in Trieu et al., 2014; conditions: ref Trieu et al., 2014; cited from earlier work
HepG2 (liver cancer) = test system: HepG2 (liver cancer); set-up: method as in Trieu et al., 2014; conditions: ref Trieu et al., 2014; cited from earlier work
MCF7 (breast carcinoma) = test system: MCF7 (breast carcinoma); set-up: method as in Trieu et al., 2014; conditions: ref Trieu et al., 2014; cited from earlier work
[8] = MTT, 24 h, 1.0-100.0 μM, read-out: IC50 SMMC-7721
[9] = 1.0-100.0 μM, read-out: IC50 HEK293T
[10] = MTT, 24 h, 1.0-100.0 μM, read-out: IC50 SW1116

| IC50 [1, 8] | IC50 [3] | IC50 [5, 10] | IC50 [6] | Compound | IC50 [2, 9] | cell viability of SW1116 cells compared with normal group (0 μM) ([5]; 24 h) | further results |
| --- | --- | --- | --- | --- | --- | --- | --- |
| 61.7 ± 10.1 µM | 45 ± 4.27 µM | 6.73 ± 0.89 µM | 50.1 ± 3.25 µM | CC(=O)OC(C1CC=CC(=O)O1)C1OC(C2CC=CC(=O)O2)C(c2ccccc2)c2ccccc21 (centres unmarked) [Leiocarpin E-7′-monoacetate, leiocarpin E-7′-monoacetate] | > 100 µM | significantly less | early apoptosis rate (Q4) (SW1116 cells; SW1116, 3 μM): 2.6%; early apoptosis rate (Q4) (SW1116 cells; SW1116, 10 μM): 21.8%; early apoptosis rate (Q4) (SW1116 cells; SW1116, 30 μM): 55.2%; ratio of ODsample to ODnegative (caspase activity) ([4]; SW1116, 3 μM): ≤ 1; ratio of ODsample to ODnegative (caspase activity) ([4]; SW1116, 10 μM): greater than 1; ratio of ODsample to ODnegative (caspase activity) ([4]; SW1116, 30 μM): greater than 1 |
| > 100 µM | > 100 µM | 41.9 ± 0.98 µM | > 100 µM | COc1cc([C@@H]2c3cc4c(cc3[C@@H](O[C@@H]3O[C@@H]5CO[C@@H](C)O[C@H]5[C@H](O)[C@H]3O)[C@H]3COC(=O)[C@H]23)OCO4)cc(OC)c1O [VP-16, Etoposide, reference compound] | > 100 µM | – | – |
| – | – | – | – | hydroxypropyl-β-cyclodextrin [HP-β-CD] | – | – | inhibition of growth, SMMC-7721 ([1]; MTT, 24 h, 25.0-200.0 μM): did not show any inhibition; also recorded: no inhibitory effect; inhibitory activity against HEK293T ([2]; 25.0-200.0 μM): did not show any inhibitory activity; inhibition of growth, SW1116 ([5]; MTT, 24 h, 25.0-200.0 μM): did not show any inhibition; also recorded: no inhibitory effect |
| > 100 µM | > 100 µM | 93.18 ± 0.78 µM | > 100 µM | CC(=O)O[C@H]1C=CC(=O)O[C@H]1[C@H]1O[C@@H]1c1ccccc1 [Cheliensisin A, (2R,3S)-6-oxo-2-((2S,3R)-3-phenyloxiran-2-yl)-3,6-dihydro-2H-pyran-3-yl acetate] | > 100 µM | – | IC50 ([1]; pristine compound, MTT, 24 h, 25.0-200.0 μM, read-out: IC50 SMMC-7721 Compound): 111 ± 2.41 µM; IC50 reduced by complexation with HP-β-CD, SMMC-7721 ([1]; complex vs pristine compound): 58%; IC50 ([2]; pristine compound, 25.0-200.0 μM, read-out: IC50 HEK293T Compound): > 200 µM; IC50 ([5]; pristine compound, MTT, 24 h, 25.0-200.0 μM, read-out: IC50 SW1116 Compound): 93.18 ± 0.78 µM; IC50 reduced by complexation with HP-β-CD, SW1116 ([5]; complex vs pristine compound): 45% |
| > 100 µM | > 100 µM | 80 ± 4.16 µM | > 100 µM | O=C1C=CC[C@H]([C@H](O)[C@H](O)c2ccccc2)O1 [Goniodiol, (R)-6-((1R,2R)-1,2-dihydroxy-2-phenylethyl)-5,6-dihydro-2H-pyran-2-one] | > 100 µM | – | – |
| – | – | – | – | CC(=O)OC1C(c2ccccc2)OC2C=CC(=O)OC21 (centres unmarked) [7-acetylaltholactone] | – | – | IC50 [7]: 13.1 µM; IC50 (HepG2 (liver cancer)): 23.7 µM; IC50 (MCF7 (breast carcinoma)): 60.2 µM |
| > 100 µM | > 100 µM | 15.1 ± 1.87 µM | > 100 µM | O=C1C=CC[C@H]([C@@H](O)[C@H]2O[C@H]([C@H]3CC=CC(=O)O3)[C@@H](c3ccccc3)c3ccccc32)O1 [Leiocarpin E, (R)-6-((R)-hydroxy((1S,3S,4S)-3-((R)-6-oxo-3,6-dihydro-2H-pyran-2-yl)-4-phenylisochroman-1-yl)methyl)-5,6-dihydro-2H-pyran-2-one] | > 100 µM | significantly less | – |
| 15.5 ± 1.11 µM | 18.2 ± 0.88 µM | 17.5 ± 0.69 µM | 19.3 ± 1.42 µM | O=C1C=CC[C@H]([C@@H](O)[C@H](Oc2cc(O)c3c(c2)O[C@H](c2ccccc2)CC3=O)c2ccccc2)O1 [Leiocarpin B, (S)-5-hydroxy-7-((1R,2R)-2-hydroxy-2-((R)-6-oxo-3,6-dihydro-2H-pyran-2-yl)-1-phenylethoxy)-2-phenylchroman-4-one] | > 100 µM | significantly less | – |
